From article PMC12216609, “Inhibitors of eIF1A-ribosome interaction unveil uORF-dependent regulation of translation initiation and antitumor and antiviral effects” (The EMBO Journal, 2025)
Values joined by “and” are separate entries in the source; they are usually repeats but may differ in a detail not shown here. Identical values can stand only once. Like-named read-outs stand apart in the source and are kept apart here.

Key:
eIF1A-RPS10 interaction = molecular target: T1, eIF1A-RPS10 interaction (Homo sapiens, UniProt P46783+P47813); experiment: Split-Renilla luciferase eIF1A-RPS10 interaction screen, dose-response; format: biochemical; conditions: summary table; read-out: IC50 concentration (µM), IC50 screen
T1 construct: made in house; host or cells: E. coli BL21 (PRSFduet); unpurified lysate supernatant
In short: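 Recombinant split-luciferase fusions were produced bacterially, lysed by sonication in TKE buffer and the cleared supernatants tested for Renilla activity. Compounds, held as 10 mM DMSO stocks, were then assayed for interference with the reconstituted signal, with unfused Renilla halves run as controls.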

RPS10 = molecular target: T2, RPS10 (Homo sapiens, UniProt P46783); format: binding
T2 construct: made in house; host or cells: E. coli BL-21

[1] = tested on: CUG/GUG vs AUG start codon luciferase reporters in HEK293T cells; experiment: Near-cognate AUG starting codon fidelity reporter assay (GUG, CUG vs AUG); format: cell-based; conditions: for average CUG and GUG / average CUG and GUG relative to DMSO / CUG Average / GUG Average: NUG experiment; for CUG Average: CUG vs AUG reporter; for GUG Average: GUG vs AUG reporter; for NUG (Final data, Fig. 1E): average CUG and GUG relative to DMSO, 20 µM overnight; for GUG vs AUG data (%): individual repeat; for GUG vs AUG (%) Average: summary average of repeats, DMSO control average […]
eIF1A = molecular target: T3, eIF1A (Homo sapiens, UniProt P47813); format: binding; conditions: for fluorescence ratio, eIF1A: background-corrected, relative to DMSO or lowest 1Ai concentration, replicate columns
T3 construct: His-bdSUMO (cleaved yes); made in house; host or cells: E. coli BL-21

[2] = eIF1A, from the titration data, read-out: IC50 (eIF1A titration block)
[3] = summary table, fluorescence binding assay, read-out: IC50 concentration (µM), WT eIF1A

T3 sequence (P47813 whole entry): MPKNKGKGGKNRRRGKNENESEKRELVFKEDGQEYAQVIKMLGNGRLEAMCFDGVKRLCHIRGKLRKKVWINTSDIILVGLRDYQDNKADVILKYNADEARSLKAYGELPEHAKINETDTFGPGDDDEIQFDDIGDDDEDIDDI
T1 sequence (P47813 whole entry, one chain of several): as the sequence (P47813 whole entry) above

SMILES | IC50 (eIF1A-RPS10 interaction) | RPS10 fluorescence ratio to control (RPS10; 1Ai conc. 0.25 uM) | RPS10 fluorescence ratio to control (RPS10; 1Ai conc. 0.5 uM) | RPS10 fluorescence ratio to control (RPS10; 1Ai conc. 1 uM) | RPS10 fluorescence ratio to control (RPS10; 1Ai conc. 2 uM) | RPS10 fluorescence ratio to control (RPS10; 1Ai conc. 4 uM) | RPS10 fluorescence ratio to control (RPS10; 1Ai conc. 8 uM) | RPS10 fluorescence ratio to control (RPS10; 1Ai conc. 16 uM) | RPS10 fluorescence ratio to control (RPS10; 1Ai conc. 32 uM) | RPS10 fluorescence ratio to control (RPS10; 1Ai conc. 64 uM) | RPS10 fluorescence ratio to control (RPS10; 1Ai conc. 256 uM) | average CUG and GUG [1] | average CUG and GUG relative to DMSO [1] | CUG Average [1] | GUG Average [1] | NUG (Final data, Fig. 1E) [1] | fluorescence ratio, eIF1A (eIF1A; 1Ai conc. 0.25 uM) | fluorescence ratio, eIF1A (eIF1A; 1Ai conc. 1 uM) | fluorescence ratio, eIF1A (eIF1A; 1Ai conc. 2 uM) | fluorescence ratio, eIF1A (eIF1A; 1Ai conc. 4 uM) | also measured
Cc1ccc(C(=O)c2cc(O)c(O)c([N+](=O)[O-])c2)cc1 [1Ai-5576] | 24 µM | 1.2176 | 1.045 | 1.349 | 1.319 | 1.348 | 0.4488 | 0.3698 | 0.4065 | 0.1627 | 0.3279 | 6.465 | 1.433 | 9.471 | 3.46 | 1.433 | 0.7537 and 0.6505 | 0.6232 and 0.5058 | 0.6427 and 0.4189 | 0.6101 and 0.3891 | IC50 (RPS10; read-out: IC50 (line under RPS10 binding data)): 7.4 µM; IC50 (RPS10; read-out: RPS10 IC50): 7.4 µM; IC50 (RPS10; summary table, fluorescence binding assay, read-out: IC50 concentration (µM), RPS10): 7.4 µM; CUG vs AUG (%) ([1]; CUG start codon reporter relative to AUG reporter (AUG = 100), compound at 20uM (summary head), single-experiment calculation): 5.985%; GUG vs AUG (%) ([1]; GUG start codon reporter relative to AUG reporter (AUG = 100), compound at 20uM (summary head), single-experiment calculation): 2.005%; GUG vs AUG data (%) ([1]; compound at 20uM): 2.91% and 4.78% and 2.69%; GUG vs AUG (%) Average ([1]; compound at 20uM): 3.46%; fluorescence ratio, eIF1A (eIF1A; 1Ai conc. 0.5 uM): 0.6672 and 0.6249; fluorescence ratio, eIF1A (eIF1A; 1Ai conc. 8 uM): 0.5237 and 0.3506; fluorescence ratio, eIF1A (eIF1A; 1Ai conc. 16 uM): 0.4763 and 0.3127; fluorescence ratio, eIF1A (eIF1A; 1Ai conc. 32 uM): 0.3344 and 0.3594; fluorescence ratio, eIF1A (eIF1A; 1Ai conc. 64 uM): 0.3785 and 0.2952; fluorescence ratio, eIF1A (eIF1A; 1Ai conc. 256 uM): 0.2822 and 0.2602; IC50 (eIF1A; [2]): 0.926 µM; IC50 (eIF1A; [3]): 0.9 µM
CN(C)CC1CCn2cc(c3ccccc32)C2=C(C(=O)NC2=O)c2cn(c3ccccc23)CCO1 (stereo not shown) [1Ai-5662] | 25 µM | 0.8917 | 1.048 | 0.937 | 0.8646 | 0.7525 | 0.6979 | 0.6531 | 0.6137 | 0.4569 | 0.295 | 5.24 | 1.162 | 7.645 | 2.835 | 1.162 | 0.7967 and 0.9449 | 0.7317 and 0.9217 | 1.065 and 0.7855 | 1.002 and 0.7942 | RPS10 IC50 (RPS10; fluorescence binding): No binding; IC50 concentration (µM), RPS10 (RPS10; summary table, fluorescence binding assay): No binding; GUG vs AUG data (%) ([1]; compound at 10uM): 1.99% and 4.83% and 1.69%; GUG vs AUG (%) Average ([1]; compound at 10uM): 2.83%; fluorescence ratio, eIF1A (eIF1A; 1Ai conc. 0.5 uM, listed as 5662): 0.8569 and 0.971; fluorescence ratio, eIF1A (eIF1A; 1Ai conc. 8 uM): 0.774 and 0.658; fluorescence ratio, eIF1A (eIF1A; 1Ai conc. 16 uM): 0.5642 and 0.6667; fluorescence ratio, eIF1A (eIF1A; 1Ai conc. 32 uM): 0.2341 and 0.4609; fluorescence ratio, eIF1A (eIF1A; 1Ai conc. 64 uM): 0.1593 and 0.2928; fluorescence ratio, eIF1A (eIF1A; 1Ai conc. 256 uM): 0.1171 and 0.07826; IC50 (eIF1A; [2]): 20.9 µM; IC50 (eIF1A; [3]): 20.9 µM
